Source: patent publication US12077503B2, “Substituted cyclic amides and their use as herbicides” (FMC CORPORATION, priority 2015, dated 2024)

What was measured:
Format in all cases: in vivo
[1] = system: Kochia (Kochia scoparia); test: Test A preemergence; conditions: Bassia scoparia, pre-emergence, 240 h, 0 to 100 scale where 0 is no effect and 100 is complete control, read-out: Kochia plant response rating; for pest or weed control at 31 g/ha: 31 g ai/ha, Preemergence; for pest or weed control at 125 g/ha: 125 g ai/ha, preemergence, visual injury rating, approximately 10 d
Procedure, shortened: (§1)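 Visual injury scores from 0, no effect, to 100, complete control, were assigned versus untreated controls roughly 10 d after treatment in the greenhouse. Test chemicals, formulated with surfactant in a non-phytotoxic solvent, were applied to planted seeds as a preemergence soil spray or postemergence to one- to two-leaf plants 2 to 10 cm tall, in loam–sand soil.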

[2] = system: pigweed (Amaranthus retroflexus); test: Test A preemergence; conditions: Amaranthus retroflexus, pre-emergence, 240 h, 0 to 100 scale where 0 is no effect and 100 is complete control, read-out: Pigweed plant response rating; for pest or weed control at 31 g/ha: 31 g ai/ha, Preemergence; for pest or weed control at 125 g/ha: 125 g ai/ha, preemergence, visual injury rating, approximately 10 d
[3] = system: giant foxtail (Setaria faberii); test: Test A preemergence; conditions: Setaria faberi, pre-emergence, 240 h, 0 to 100 scale where 0 is no effect and 100 is complete control, read-out: Foxtail, Giant plant response rating; for pest or weed control at 31 g/ha: 31 g ai/ha, Preemergence; for pest or weed control at 125 g/ha: 125 g ai/ha, preemergence, visual injury rating, approximately 10 d
Procedure, shortened: as §1

[4] = system: ryegrass, Italian (Italian ryegrass, Lolium multiflorum); test: Test A preemergence; conditions: Lolium multiflorum, pre-emergence, 240 h, 0 to 100 scale where 0 is no effect and 100 is complete control, read-out: Ryegrass, Italian plant response rating; for pest or weed control at 31 g/ha: 31 g ai/ha, Preemergence; for pest or weed control at 125 g/ha: 125 g ai/ha, preemergence, visual injury rating, approximately 10 d
Procedure, shortened: as §1

[5] = system: barnyardgrass (Echinochloa crus-galli); test: Test A preemergence; conditions: Echinochloa crus-galli, pre-emergence, 240 h, 0 to 100 scale where 0 is no effect and 100 is complete control, read-out: Barnyardgrass plant response rating; for pest or weed control at 31 g/ha: 31 g ai/ha, Preemergence; for pest or weed control at 125 g/ha: 125 g ai/ha, preemergence, visual injury rating, approximately 10 d
Procedure, shortened: as §1

[6] = system: ragweed (common ragweed, Ambrosia elatior); test: Test A preemergence; conditions: Ambrosia artemisiifolia, pre-emergence, 240 h, 0 to 100 scale where 0 is no effect and 100 is complete control, read-out: Ragweed plant response rating; for pest or weed control at 31 g/ha: 31 g ai/ha, Preemergence; for pest or weed control at 125 g/ha: 125 g ai/ha, preemergence, visual injury rating, approximately 10 d
Procedure, shortened: as §1

[7] = system: Kochia (Kochia scoparia); test: Test A postemergence; conditions: Bassia scoparia, post-emergence, 240 h, Postemergence, read-out: Kochia plant response rating (0 to 100 scale); for pest or weed control at 125 g/ha: 125 g ai/ha, visual rating about 10 d after treatment; for pest or weed control at 31 g/ha: 31 g ai/ha, 0 is no effect, 100 is complete control
Procedure, shortened: as §1

[8] = system: blackgrass (Alopecurus myosuroides); test: Test A postemergence; conditions: Alopecurus myosuroides, post-emergence, 240 h, Postemergence, read-out: Blackgrass plant response rating (0 to 100 scale); for pest or weed control at 125 g/ha: 125 g ai/ha, visual rating about 10 d after treatment; for pest or weed control at 31 g/ha: 31 g ai/ha, 0 is no effect, 100 is complete control
Procedure, shortened: as §1

[9] = system: wheat (Triticum aestivum); test: Test A postemergence; conditions: Triticum aestivum, post-emergence, 240 h, Postemergence, read-out: Wheat plant response rating (0 to 100 scale); for plant injury at 125 g/ha: 125 g ai/ha, visual rating about 10 d after treatment; for plant injury at 31 g/ha: 31 g ai/ha, 0 is no effect, 100 is complete control
Procedure, shortened: as §1

[10] = system: pigweed (Amaranthus retroflexus); test: Test A postemergence; conditions: Amaranthus retroflexus, post-emergence, 240 h, Postemergence, read-out: Pigweed plant response rating (0 to 100 scale); for pest or weed control at 125 g/ha: 125 g ai/ha, visual rating about 10 d after treatment; for pest or weed control at 31 g/ha: 31 g ai/ha, 0 is no effect, 100 is complete control
Procedure, shortened: as §1

[11] = system: giant foxtail (Setaria faberii); test: Test A postemergence; conditions: Setaria faberi, post-emergence, 240 h, Postemergence, read-out: Foxtail, Giant plant response rating (0 to 100 scale); for pest or weed control at 125 g/ha: 125 g ai/ha, visual rating about 10 d after treatment; for pest or weed control at 31 g/ha: 31 g ai/ha, 0 is no effect, 100 is complete control
Procedure, shortened: as §1

[12] = system: ryegrass, Italian (Italian ryegrass, Lolium multiflorum); test: Test A postemergence; conditions: Lolium multiflorum, post-emergence, 240 h, Postemergence, read-out: Ryegrass, Italian plant response rating (0 to 100 scale); for pest or weed control at 125 g/ha: 125 g ai/ha, visual rating about 10 d after treatment; for pest or weed control at 31 g/ha: 31 g ai/ha, 0 is no effect, 100 is complete control
Procedure, shortened: as §1

[13] = system: Galium (catchweed bedstraw, Galium aparine); test: Test A postemergence; conditions: Galium, post-emergence, 240 h, Postemergence, read-out: Galium plant response rating (0 to 100 scale); for pest or weed control at 125 g/ha: 125 g ai/ha, visual rating about 10 d after treatment; for pest or weed control at 31 g/ha: 31 g ai/ha, 0 is no effect, 100 is complete control
Procedure, shortened: as §1

[14] = system: corn (Zea mays); test: Test A postemergence; conditions: Zea mays, post-emergence, 240 h, Postemergence, read-out: Corn plant response rating (0 to 100 scale); for plant injury at 125 g/ha: 125 g ai/ha, visual rating about 10 d after treatment; for plant injury at 31 g/ha: 31 g ai/ha, 0 is no effect, 100 is complete control
Procedure, shortened: as §1

[15] = system: barnyardgrass (Echinochloa crus-galli); test: Test A postemergence; conditions: Echinochloa crus-galli, post-emergence, 240 h, Postemergence; for pest or weed control at 125 g/ha: 125 g ai/ha, visual rating about 10 d after treatment, read-out: Barnyardgrass plant response rating (0 to 100 scale, 0 no effect, 100 complete control); for pest or weed control at 31 g/ha: 31 g ai/ha, 0 is no effect, 100 is complete control, read-out: Barnyardgrass plant response rating (0 to 100 scale)
Procedure, shortened: as §1

[16] = system: ragweed (common ragweed, Ambrosia elatior); test: Test A postemergence; conditions: Ambrosia artemisiifolia, post-emergence, 240 h, Postemergence, read-out: Ragweed plant response rating (0 to 100 scale); for pest or weed control at 125 g/ha: 125 g ai/ha, visual rating about 10 d after treatment; for pest or weed control at 31 g/ha: 31 g ai/ha, 0 is no effect, 100 is complete control
Procedure, shortened: as §1

[17] = system: rice (Oryra sativa); test: Test B flooded paddy test; conditions: Oryza sativa, 250 g ai/ha, Flood; 0 to 100 scale where 0 is no effect and 100 is complete control; read-out: Rice plant response rating
Procedure, shortened: (§2)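 Response scored visually against untreated controls, 0 = no effect and 100 = complete control, 13–15 d after treatment in the greenhouse. Compounds added to paddy water held 3 cm above soil surface. Treatment given at 2-leaf stage.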

[18] = system: ducksalad (Heteranthera limosa); test: Test B flooded paddy test; conditions: Heteranthera limosa, 250 g ai/ha, Flood; 0 to 100 scale where 0 is no effect and 100 is complete control; read-out: Ducksalad plant response rating
Procedure, shortened: as §2

[19] = system: sedge, umbrella (small-flower umbrella sedge, Cyperus difformis); test: Test B flooded paddy test; conditions: Cyperus difformis, 250 g ai/ha, Flood; 0 to 100 scale where 0 is no effect and 100 is complete control; read-out: Sedge, Umbrella plant response rating
Procedure, shortened: as §2

[20] = system: barnyardgrass (Echinochloa crus-galli); test: Test B flooded paddy test; conditions: Echinochloa crus-galli, 250 g ai/ha, Flood; 0 to 100 scale where 0 is no effect and 100 is complete control; read-out: Barnyardgrass plant response rating
Procedure, shortened: as §2

CN1C[C@H](c2cccc(C#N)c2)[C@@H](C(=O)Nc2ccccc2F)C1=O [Compound 1285]
pest or weed control at 31 g/ha [1]: 20%
pest or weed control at 125 g/ha [1]: 30%
pest or weed control at 31 g/ha [2]: 0%
pest or weed control at 125 g/ha [2]: 0%
pest or weed control at 31 g/ha [3]: 90%
pest or weed control at 125 g/ha [3]: 100%
pest or weed control at 31 g/ha [4]: 0%
pest or weed control at 125 g/ha [4]: 0%
pest or weed control at 31 g/ha [5]: 40%
pest or weed control at 125 g/ha [5]: 90%
pest or weed control at 31 g/ha [6]: 30%
pest or weed control at 125 g/ha [6]: 30%
pest or weed control at 125 g/ha [7]: 0%
pest or weed control at 31 g/ha [7]: 0%
pest or weed control at 125 g/ha [8]: 0%
pest or weed control at 31 g/ha [8]: 0%
plant injury at 125 g/ha [9]: 0%
plant injury at 31 g/ha [9]: 0%
pest or weed control at 125 g/ha [10]: 20%
pest or weed control at 31 g/ha [10]: 20%
pest or weed control at 125 g/ha [11]: 70%
pest or weed control at 31 g/ha [11]: 40%
pest or weed control at 125 g/ha [12]: 0%
pest or weed control at 31 g/ha [12]: 0%
pest or weed control at 125 g/ha [13]: 30%
pest or weed control at 31 g/ha [13]: 20%
plant injury at 125 g/ha [14]: 0%
plant injury at 31 g/ha [14]: 0%
pest or weed control at 125 g/ha [15]: 80%
pest or weed control at 31 g/ha [15]: 60%
pest or weed control at 125 g/ha [16]: 0%
pest or weed control at 31 g/ha [16]: 0%
pest or weed control at 250 g/ha [17]: 25%
pest or weed control at 250 g/ha [18]: 90%
pest or weed control at 250 g/ha [19]: 0%
pest or weed control at 250 g/ha [20]: 60%

CN1C[C@H](c2cccc(C#N)c2)[C@@H](C(=O)Nc2ccc(F)c(F)c2F)C1=O [Compound 1287]
pest or weed control at 31 g/ha [1]: 20%
pest or weed control at 125 g/ha [1]: 70%
pest or weed control at 31 g/ha [2]: 0%
pest or weed control at 125 g/ha [2]: 40%
pest or weed control at 31 g/ha [3]: 100%
pest or weed control at 125 g/ha [3]: 100%
pest or weed control at 31 g/ha [4]: 0%
pest or weed control at 125 g/ha [4]: 40%
pest or weed control at 31 g/ha [5]: 90%
pest or weed control at 125 g/ha [5]: 100%
pest or weed control at 31 g/ha [6]: 0%
pest or weed control at 125 g/ha [6]: 0%
pest or weed control at 125 g/ha [7]: 30%
pest or weed control at 31 g/ha [7]: 0%
pest or weed control at 125 g/ha [8]: 20%
pest or weed control at 31 g/ha [8]: 0%
plant injury at 125 g/ha [9]: 0%
plant injury at 31 g/ha [9]: 0%
pest or weed control at 125 g/ha [10]: 0%
pest or weed control at 31 g/ha [10]: 0%
pest or weed control at 125 g/ha [11]: 80%
pest or weed control at 31 g/ha [11]: 70%
pest or weed control at 125 g/ha [12]: 0%
pest or weed control at 31 g/ha [12]: 0%
pest or weed control at 125 g/ha [13]: 40%
pest or weed control at 31 g/ha [13]: 30%
plant injury at 125 g/ha [14]: 0%
plant injury at 31 g/ha [14]: 0%
pest or weed control at 125 g/ha [15]: 90%
pest or weed control at 31 g/ha [15]: 80%
pest or weed control at 125 g/ha [16]: 0%
pest or weed control at 31 g/ha [16]: 0%
pest or weed control at 250 g/ha [17]: 15%
pest or weed control at 250 g/ha [18]: 80%
pest or weed control at 250 g/ha [19]: 0%
pest or weed control at 250 g/ha [20]: 75%
